Like-named read-outs stand apart in the source and are kept apart here.
Legend:
Format in all cases: in vivo
Pyricularia oryzae = assay: whole plant or invertebrate; details: for pest or weed control at 0.05 ppm / pest or weed control at 0.1 ppm: Pyricularia oryzae, read-out: Observed Efficacy; for Observed Efficacy: single compound, preventive spray, rice
Alternaria solani = Alternaria solani test in tomato (preventive, glasshouse); details: for pest or weed control at 0.05 ppm / pest or weed control at 0.1 ppm: Alternaria solani
Erysiphe cichoracearum = Erysiphe cichoracearum test in cucumber (preventive, glasshouse); details: single compound; for pest or weed control at 0.05 ppm / pest or weed control at 0.1 ppm: Golovinomyces cichoracearum, read-out: Observed Efficacy (%)
Phakopsora pachyrhizi = Phakopsora pachyrhizi test in soybean (preventive, glasshouse); details: single compound; for pest or weed control at 0.1 ppm / pest or weed control at 0.05 ppm: Phakopsora pachyrhizi, read-out: Observed Efficacy (%)
Botrytis cinerea = Botrytis cinerea test in tomato (preventive, glasshouse); details: single compound
[1] = single compound, 0.05 ppm, preventive spray, read-out: Observed Efficacy (%)
[2] = single compound, 0.1 ppm, preventive spray, read-out: Observed Efficacy (%)
[3] = single compound, Conc. 0.05 ppm, preventive spray, read-out: Observed Efficacy
[4] = single compound, Conc. 0.1 ppm, preventive spray, read-out: Observed Efficacy
[5] = Table B3, single compound, Conc. 0.05 ppm, preventive
[6] = Table B3, single compound, Conc. 0.1 ppm, preventive
[7] = single compound, 0.05 ppm, preventive
[8] = single compound, 0.1 ppm, preventive
[9] = 0.05 ppm, preventive spray on cucumber
[10] = 0.1 ppm, preventive spray on cucumber
[11] = 0.1 ppm, preventive spray on soybean
[12] = Conc. 0.1 ppm, soybean, preventive, Table D4
[13] = Botrytis cinerea, Conc. 0.05 ppm, preventive spray on tomato, % control vs untreated, read-out: Observed Efficacy (%)
[14] = Table F4, Conc. 0.05 ppm, Botrytis cinerea in tomato, preventive
[15] = Table F4, Conc. 0.1 ppm, Botrytis cinerea in tomato, preventive, read-out: Observed Efficacy (%)
[16] = Table F4, Conc. 0.1 ppm, Botrytis cinerea in tomato, preventive
[17] = Table F5, Conc. 0.05 ppm, Botrytis cinerea in tomato, preventive
[18] = Table F5, Conc. 0.1 ppm, Botrytis cinerea in tomato, preventive
[19] = Table B4, single compound, Conc. 0.05 ppm, preventive
[20] = Table B4, single compound, Conc. 0.1 ppm, preventive
[21] = 0.05 ppm, preventive spray on soybean
[22] = Conc. 0.05 ppm, soybean, preventive, Table D4
[23] = Conc. 0.1 ppm, soybean, preventive, Table D5
[24] = Botrytis cinerea, Conc. 0.1 ppm, preventive spray on tomato, % control vs untreated, read-out: Observed Efficacy (%)
[25] = single compound, 0.05 ppm, preventive spray
[26] = single compound, 0.1 ppm, preventive spray
[27] = single compound, Conc. 0.1 ppm, preventive spray
[28] = Conc. 0.05 ppm, preventive spray on tomato, % control vs untreated
[29] = Conc. 0.1 ppm, preventive spray on tomato, % control vs untreated
[30] = Conc. 0.05 ppm, soybean, preventive, Table D5

Molecule | pest or weed control at 0.05 ppm (Pyricularia oryzae) | pest or weed control at 0.1 ppm (Pyricularia oryzae) | pest or weed control at 0.05 ppm (Alternaria solani; [1]) | pest or weed control at 0.1 ppm (Alternaria solani; [2]) | pest or weed control at 0.05 ppm (Alternaria solani; [3]) | pest or weed control at 0.1 ppm (Alternaria solani; [4]) | Observed Efficacy (%) (Alternaria solani; [5]) | Observed Efficacy (%) (Alternaria solani; [6]) | Observed Efficacy (%) (Alternaria solani; [7]) | Observed Efficacy (%) (Alternaria solani; [8]) | pest or weed control at 0.1 ppm (Erysiphe cichoracearum; 0.1 ppm, cucumber, preventive) | Observed Efficacy (%) (Erysiphe cichoracearum; [9]) | Observed Efficacy (%) (Erysiphe cichoracearum; [10]) | pest or weed control at 0.1 ppm (Phakopsora pachyrhizi; [11]) | Observed Efficacy (%) (Phakopsora pachyrhizi; [12]) | pest or weed control at 0.05 ppm (Botrytis cinerea; [13]) | Observed Efficacy (%) (Botrytis cinerea; [14]) | Observed Efficacy (%) (Botrytis cinerea; [16]) | Observed Efficacy (%) (Alternaria solani; [19]) | Observed Efficacy (%) (Alternaria solani; [20]) | other results
O=C(Nc1ccccc1-c1ccc(Cl)cc1)c1cccnc1Cl [Boscalid, boscalid] | 24% | 37% | 13% | 26% | 13% | 26% | 13% | 26% | 13% | 26% | 32% | 24% | 32% | 32% | 32% | 38% | 38% | – | – | – | pest or weed control at 0.05 ppm (Erysiphe cichoracearum; 0.05 ppm, cucumber, preventive): 24%; pest or weed control at 0.1 ppm (Botrytis cinerea; [15]): 52%
N#Cc1sc2c(=O)c3ccccc3c(=O)c=2sc1C#N [Dithionon] | – | – | – | – | – | – | 21% | 26% | – | – | – | – | – | – | – | – | 38% | 45% | – | – | Observed Efficacy (%) (Botrytis cinerea; [17]): 38%; Observed Efficacy (%) (Botrytis cinerea; [18]): 45%
CC1CC(C)(C)c2c(F)ccc(NC(=O)c3cn(C)nc3C(F)F)c21 (stereo not drawn) [Fluindapyr, 3-(difluoromethyl)-N-(7-fluoro-1,1,3-trimethyl-2,3-dihydro-1H-inden-4-yl)-1-methyl-1H-pyrazole-4-carboxamide] | 11% | – | 14% | 29% | – | – | 14% | 29% | 14% | 29% | 38% | 29% | 38% | 30% | 30% | 27% | 27% | 41% | 14% | 29% | pest or weed control at 0.05 ppm (Erysiphe cichoracearum; 0.05 ppm, cucumber, preventive): 29%; pest or weed control at 0.05 ppm (Phakopsora pachyrhizi; [21]): 20%; Observed Efficacy (%) (Phakopsora pachyrhizi; [22]): 20%; Observed Efficacy (%) (Phakopsora pachyrhizi; [23]): 30%; pest or weed control at 0.1 ppm (Botrytis cinerea; [24]): 41%; Observed Efficacy (%) (Botrytis cinerea; [17]): 27%; Observed Efficacy (%) (Botrytis cinerea; [18]): 41%
CC(O)(Cn1cncn1)c1ccc(Oc2ccc(Cl)cc2)cc1C(F)(F)F (stereo not drawn) [Mefentrifluconazole, mefentrifluconazole] | – | – | – | – | – | – | 12% | 26% | 12% | 26% | – | 21% | 24% | – | – | – | 31% | 38% | 12% | 26% | Observed Efficacy (Pyricularia oryzae; Conc. 0.05 ppm): 21%; Observed Efficacy (Pyricularia oryzae; Conc. 0.1 ppm): 24%; Observed Efficacy (%) (Alternaria solani; [25]): 12%; Observed Efficacy (%) (Alternaria solani; [26]): 26%; Observed Efficacy (Alternaria solani; single compound, Conc. 0.05 ppm, preventive spray): 12%; Observed Efficacy (Alternaria solani; [27]): 26%; Observed Efficacy (%) (Erysiphe cichoracearum; 0.1 ppm, cucumber, preventive): 24%; Observed Efficacy (%) (Botrytis cinerea; [28]): 31%; Observed Efficacy (%) (Botrytis cinerea; [29]): 38%
CNC(=O)/C(=N/OC)c1ccccc1Oc1ccccc1 [Metaminostorbin] | – | – | – | – | – | – | – | – | – | – | – | – | – | – | – | – | – | – | – | – | Observed Efficacy (%) (Phakopsora pachyrhizi; [21]): 45%; Observed Efficacy (%) (Phakopsora pachyrhizi; [11]): 56%; Observed Efficacy (%) (Botrytis cinerea; [28]): 28%; Observed Efficacy (%) (Botrytis cinerea; [29]): 40%
OC(Cc1ccccc1Cl)(Cn1nc[nH]c1=S)C1(Cl)CC1 (stereo not drawn) [Prothioconazole, prothioconazole] | 17% | 33% | 20% | 31% | 20% | 31% | 20% | 31% | 20% | 31% | – | – | – | – | – | 36% | 36% | 44% | 20% | 31% | pest or weed control at 0.01 ppm (Botrytis cinerea; Botrytis cinerea, Conc. 0.01 ppm, preventive spray on tomato, % control vs untreated, read-out: Observed Efficacy (%)): 44%; pest or weed control at 0.1 ppm (Botrytis cinerea; [24]): 44%
COC(=O)N(OC)c1ccccc1COc1ccn(-c2ccc(Cl)cc2)n1 [Pyraclostrobin, pyraclostrobin] | 16% | 24% | 21% | 28% | 21% | 28% | – | 28% | – | – | 24% | – | 24% | – | – | – | – | – | – | – | pest or weed control at 0.05 ppm (Erysiphe cichoracearum; [9]): 21%; pest or weed control at 0.05 ppm (Botrytis cinerea; Table F4, Conc. 0.05 ppm, Botrytis cinerea in tomato, preventive, read-out: Observed Efficacy (%)): 38%; pest or weed control at 0.1 ppm (Botrytis cinerea; [15]): 43%
CC(C)(C)C(O)(CCc1ccc(Cl)cc1)Cn1cncn1 (stereo not drawn) [Tebuconazole, tebuconazole] | 17% | 36% | 34% | 54% | 34% | 54% | 34% | 54% | 34% | 54% | – | – | – | 44% | 44% | 35% | – | – | 34% | – | pest or weed control at 0.05 ppm (Erysiphe cichoracearum; [9]): 29%; pest or weed control at 0.05 ppm (Phakopsora pachyrhizi; [21]): 38%; Observed Efficacy (%) (Phakopsora pachyrhizi; [22]): 38%; Observed Efficacy (%) (Phakopsora pachyrhizi; [30]): 38%; Observed Efficacy (%) (Phakopsora pachyrhizi; [23]): 44%; pest or weed control at 0.1 ppm (Botrytis cinerea; [24]): 38%
mancozeb | – | – | – | – | – | – | 14% | 16% | 14% | 16% | – | 24% | 29% | – | 15% | – | 19% | 24% | 14% | 16% | Observed Efficacy (%) (Alternaria solani; [25]): 14%; Observed Efficacy (%) (Alternaria solani; [26]): 16%; Observed Efficacy (Alternaria solani; [27]): 16%; Observed Efficacy (%) (Erysiphe cichoracearum; 0.05 ppm, cucumber, preventive): 24%; Observed Efficacy (%) (Erysiphe cichoracearum; 0.1 ppm, cucumber, preventive): 29%; Observed Efficacy (%) (Phakopsora pachyrhizi; [21]): 12%; Observed Efficacy (%) (Phakopsora pachyrhizi; [11]): 15%; Observed Efficacy (%) (Phakopsora pachyrhizi; [22]): 12%; Observed Efficacy (%) (Phakopsora pachyrhizi; [30]): 12%; Observed Efficacy (%) (Phakopsora pachyrhizi; [23]): 15%; Observed Efficacy (%) (Botrytis cinerea; [28]): 19%; Observed Efficacy (%) (Botrytis cinerea; [29]): 24%

Reference: patent publication US20230413824A1, “AGROCHEMICAL COMPOSITION COMPRISING 3-SUBSTITUTED PHENYLAMIDINE COMPOUNDS AND USE THEREOF” (PI INDUSTRIES LIMITED, priority 2020, published 2023)
